Measured values taken from patent US20240002424A1, “HEXOSAMINE COMPOUNDS AND METHODS THEREOF” (National Institute of Immunology, priority 2021, published 2024).

Assays:
[1] = tested on: HL-60 cells; test: Cell surface sialyl-Lewis-X (CD15s) by anti-CD15s (CSLEX1) flow cytometry; type: cell-based, human; settings: 50 μM, 24 h
Protocol: Effect of ManNAc analogues on the expression of sialyl-Lewis-X and Lewis-X: HL-60 cells (3.0×10^5 cells/mL in 2.0 mL complete medium in 6 well plate) were treated with D (vehicle), 1a, 1b, 1c, 1d, 1e, 1f, or 1g (50 PM), along with untreated (U) control. After 24 h, cells were harvested and washed with PBS (3×0.5 mL, 3000×g, 3.0 min at room temperature). Prior to last wash, cells were counted using Z2 coulter counter and aliquoted at 2.5×10^5 cells per sample and stained with either mouse anti-human CD15s (CSLEX1) (1.25 μg/mL) or mouse anti-human CD15 (HI98) (2.5 μg/mL) in HEPES/CaCl2) buffer (30 mM HEPES, 110 mM NaCl, 10 mM KCl, 2 mM MgCl2, 10 mM glucose, 1.5 mM CaCl2) containing 0.1% bovine serum albumin, pH 7.3) (total volume of 100 μL) for 30 min at 4° C. Cells were washed with HEPES/CaCl2 buffer (2×0.5 mL) and stained with AlexaFluor488-conjugated anti-mouse IgM (2.5 μg/mL) (for both CD15s and CD15) in 100 μL HEPES/CaCl2 for 30 min at 4° C. Cells were washed with HEPES/CaCl2 buffer (2×0.5 mL), resuspended in PBS (0.2 mL), treated with PI (2.5 μg/ml) and analysed by BD FACSVerse. Samples treated with (i) isotype antibodies followed by secondary antibody and (ii) secondary antibody alone were prepared as controls. Single Cells were gated for PI-negative population for 10,000 events and analysed by flow cytometry. Two replicate samples were prepared for each condition and each sample was counted twice. Three independent experiments were performed. Data was analysed using FlowJo V10. For plotting graph and calculation of significant probability ‘p’ values, two-way ANOVA with Dunnett's multiple comparison tests was employed in GraphPad Prism 8.
Time course of CD15s expression: HL-60 cells (3.0×10^5 cells/mL in 2.5 mL complete medium in 6-well plates) were incubated with D, 1a, 1b, or 1d (50 mM). At each time point, from day 1 to day 6, the cells were harvested from the entire contents of the well, washed, and aliquoted to 5.0×10^5 cells per sample, and immuno-stained using anti-CD15s (CSLEX1) antibody as mentioned above. On day 3, 4, and 5 complete media (1.0 mL) was added to each remaining well in order to compensate for media exhaustion. No contents were removed from the well during the period.

[2] = tested on: HL-60 cells; test: Total and glycoside bound sialic acids by periodate-resorcinol assay; type: cell-based, human; settings: 100 μM, 48 h
Protocol: Total sialic acids were measured following reported procedures. HL-60 cells (3.0×10^5 cells/mL in 10 mL complete medium in 10 cm diameter Petri dishes) were incubated with D, 1a, 1b, 1c, 1d, 1e, 1f, 1g, 2a, or 2b (100 mM each), along with untreated (U) controls. After 48 h, cells were harvested, washed with PBS (3×5.0 mL; 3000×g, for 2.0 min), aliquoted to 2×10^6 cells per sample and resuspended in PBS (150 mL) in 1.5 mL microcentrifuge tubes. Cells were lyzed by three freeze-thaw cycles and the total lysates were subjected to periodate-resorcinol assay. Briefly, lysates (150 mL) were treated with 0.4 M aqueous periodic acid (6.67 mM) or (2.5 mL) and incubated either on ice for 15 min (for measurement of total sialic acids) or at 37° C. for 1.0 h (for measurement of glycoconjugate bound sialic acids). About 10 mL of reagent cocktail was prepared using 6% w/v of aqueous resorcinol (1.0 mL), 2.5 mM copper (II) sulfate (1.0 mL), 44% of concentrated hydrochloric acid (4.4 mL), and water (3.6 mL). The mixture was then treated with the reagent cocktail (250 mL per sample), boiled at 100° C. for 10 min, rapidly quenched in an ice-bath and treated with tert-butanol (250 mL). The contents were centrifuged and the supernatants were aliquoted (200 mL) into 96-well plates and the absorbance at 630 nm was measured. At least three replicates were prepared for each condition.

[3] = tested on: neural cell adhesion molecules (NCAM); settings: cited from earlier work
[4] = tested on: HL-60 cells; test: NeuAz expression by SPAAC with DBCO-Cy5 and flow cytometry, competition with 1c; type: cell-based, human; settings: 50 μM with 1c 50 μM, 24 h
Protocol: Estimation of NeuAz expression by 1c in the presence of peracetylated ManNAc analogues: Jurkat cells (3.0×10^5 cells/mL in 3.0 mL per well in 6-well plates) were incubated with (i) D, (ii) 1a, 1b, 1c, or 1d alone (50 mM) or (iii) 1a, 1b, or 1d (50 mM) in combination with 1c (50 mM). After 24 h, cells were harvested, washed using FSB, aliquoted to 5.0×10^5 cells per sample, and processed as mentioned above for estimation of NeuAz expression using DBCO-Cy5 ([…]). Experiments using HL-60 cells were performed using the same procedure.
Having confirmed metabolic acceptability in Jurkat cells, the compounds were tested on HL-60 (human acute myeloid leukemia) cells which are a reliable model for neutrophil adhesion. The effect on competitive suppression of NeuAz expression was studied using 1c as a reporter. HL-60 cells were treated with 1c either alone (50 μM) or in combination with ManNAc analogues (50 μM), including the straight chain derivatives, for 24 h followed by DBCO-Cy5 ligation. […] The decreasing ability of linear alkyl moieties (1d-1g), as a function of chain length, for suppression of NeuAz expression is in contrast to the cycloalkyl moieties. […] Similarly, 1a induced a reduction of 40% compared to only a 15% reduction by 1f.

[5] = tested on: HL-60 cells; test: Western blot of total lysates for sLeX (CSLEX1) epitopes; type: cell-based, human; settings: HL-60 total lysates; 50 μM, 72 h
Protocol: Effect of ManNAc analogues on expression of CD15s epitopes: HL-60 cells (3.0×10^5 cells/mL in 10 mL complete medium in 10 cm diameter petri dishes) were incubated with D, 1a, 1b, 1d, 1e, 1f, or 1g (50 mM), along with untreated (U) controls. After 72 h, cells were harvested, washed with PBS (3×5.0 mL), and lysed in RIPA buffer (10^7 cells in […]), containing protease inhibitor cocktail (PIC, 1:100). Protein concentration of the soluble fraction was estimated using the Bradford assay. Proteins from total lysates were resolved by 7.5% SDS-PAGE and blotted onto nitrocellulose membrane (constant current of 250 mA for 3.0 h at 4° C.). Membranes were blocked using non-fat milk (NFM) (5.0% w/v) in PBS and incubated with primary antibodies (5.0 mL PBS containing 5.0% NFM) overnight at 4° C. Membranes were washed with 0.1% PBS-T (0.1% v/v tween-20 in PBS; 3×5.0 mL, five min each at room temperature) followed by incubation with appropriate fluorophore or horse radish peroxidase (HRP) conjugated secondary antibodies for 1.0 h at room temperature. Membranes were washed with 0.1% PBS-T (3×5.0 mL, five min each) and then either directly scanned using Amersham Typhoon fluorescence scanner or developed on photographic films after treatment with enhanced chemiluminescence reagents. At least two independent replicate experiments were performed for all the blots.
The primary and secondary antibodies employed, along with dilution and stock concentration, are given below: Primary antibodies: Anti-CD15s (CSLEX1; IgM, dilution 1:5000; stock concentration 0.5 mg/mL) Anti-CLA (HECA452; IgM, dilution 1:1000, stock concentration 0.5 mg/mL) […] (AC15, IgG, dilution 1:20000, stock concentration 2.2 mg/mL); and Secondary Antibodies: AlexaFluor488-conjugated anti-mouse IgM (1:10000, stock concentration 2.0 mg/mL) AlexaFluor488-conjugated anti-rat IgM (1:10000, stock concentration 0.5 mg/mL) HRP-conjugated anti-mouse IgG (1:10000, stock concentration 0.8 mg/mL) Cy5-conjugated donkey anti-mouse IgG (1:10000, stock concentration 1.4 mg/mL) AlexaFluorplus488-conjugated anti-mouse IgG (1:10000, stock conc. 2.0 mg/mL).

[6] = tested on: HL-60 cells; test: Cell density as a measure of proliferation/cytotoxicity; type: cell-based, human; settings: 100 μM, cell density measured at 24, 48, and 72 h
[7] = tested on: HL-60 cells; test: Cell surface sialyl-Lewis-X (CD15s) by anti-CD15s (CSLEX1) flow cytometry; type: cell-based, human; settings: single dosage 50 μM
[8] = tested on: HL-60 cells; settings: 10 mM; cited from earlier work

Row | Structure (SMILES) | increase in binding of CSLEX1 antibody (sLeX), in words [1] | glycoside bound sialic acid levels (in words) [2] | inhibition of polysialic acid attachment to NCAM [3] | NeuAz expression with respect to 1c alone (100%) [4] [%] | reduction of NeuAz expression with respect to controls [4] [%] | suppression of NeuAz expression (in words) [4] | sLeX (CSLEX1) bands between 150-100 kDa in western blot [5] | increase in binding of CSLEX1 antibody (sLeX) compared to controls [1] [fold] | decrease in total sialic acid levels [2] [fold] | ratio of total sialic acids to glycoside bound sialic acids vs untreated cells [2] | decrease in cell density [6] [%] | maximum increase in sLeX levels on day 2 ([7]; day 2) [fold] | sLeX levels by day 6 (in words) ([7]; day 6) | day of peak sLeX expression ([7]; time course day 1 to day 6) [days] | expression of sLeX epitopes (KM93 antibody), particularly on PSGL-1/CD162 [8]
1 | CCCC(=O)N[C@@H]1[C@@H](OC(C)=O)O[C@H](COC(C)=O)[C@@H](OC(C)=O)[C@@H]1OC(C)=O [Compound 1f, 1,3,4,6-tetra-O-acetyl-2-(1-butanoyl)amino-2-deoxy-α-D-mannopyranose] | three-fold increase | comparable to untreated cells | efficient inhibitor | 85 | 15 | moderate suppression | moderate increase |  |  |  |  |  |  |  | 
2 | CCCCC(=O)N[C@@H]1C(OC(C)=O)O[C@H](COC(C)=O)[C@@H](OC(C)=O)[C@@H]1OC(C)=O (stereo partly drawn) [Compound 1g, 1,3,4,6-tetra-O-acetyl-2-(1-pentanoyl)amino-2-deoxy-D-mannopyranose] |  |  |  | 90 | 10 | mild effect | moderate increase | ~2.5 | 0.7 | lower ratios | ~10 | 2.2 | returned to normal levels | 2 | 
3 | CCC(=O)N[C@@H]1C(O)O[C@H](CO)[C@@H](O)[C@@H]1O (stereo partly shown) [ManNProp] |  |  |  |  |  |  |  |  |  |  |  |  |  |  | enhanced expression of sLeX epitopes
